Test results as given in PMC10261210 (Cancer Chemotherapy and Pharmacology, 2023).

Experiments:
[1] = tested on: relapsed or refractory advanced solid tumors, melanoma; test: response by investigator assessment (RECIST 1.1); format: in vivo, human
Description: (§1) Adverse events were coded using the Medical Dictionary for Regulatory Activities (MedDRA) Version 19.0 and were graded according to the National Cancer Institute (NCI) Common Terminology Criteria (CTC) for adverse events (CTCAE) (Version 4.03). The assessment period for treatment emergent adverse events (TEAEs) was from the first dose of study treatment to 30 days after the last dose of study medication, or until the start of subsequent antineoplastic therapy, whichever occurred first. Following baseline evaluation, response was assessed by investigators every two cycles by computed tomography or magnetic resonance imaging according to Response Evaluation Criteria in Solid Tumors (version 1.1).
(§2) The safety population was defined as all patients who received any amount of tovorafenib. The DLT-evaluable population was defined as all patients in the dose escalation phase of the study who either experienced DLT during cycle 1 or who completed at least 75% of the planned doses and had sufficient follow-up data to allow the investigators and sponsor to determine whether DLT had occurred. […] The PK-evaluable population included all patients who had sufficient dosing data and concentration–time data to permit calculation of PK parameters.

[2] = tested on: patients with relapsed or refractory advanced solid tumors; test: phase 1 safety: adverse events (CTCAE v4.03), safety population; format: in vivo, human; conditions: for Fatal serious adverse event, MedDRA preferred term: patient
Procedure: Treatment was to be continued until disease progression, unacceptable toxicity, or the patient discontinued for any other reason, for a maximum duration of 12 months. Treatment could be continued beyond 12 months if it was determined that a patient would derive benefit from such continued therapy.
as §1, §2

[3] = tested on: wild-type BRAF; set-up: method as in doi:10.1016/S1359-6349(10)71810-3; conditions: preclinical studies; cited from earlier work
[4] = tested on: BRAF-mutant, BRAF deletion mutation and NRAS-mutant xenograft tumor models; set-up: method as in doi:10.1016/S1359-6349(10)71810-3; conditions: cited from earlier work
[5] = tested on: BRAF; set-up: method as in PMID 28082416; conditions: cited from earlier work
[6] = tested on: neural progenitor cells transformed with KIAA1549-BRAF fusion protein; set-up: method as in PMID 28082416; conditions: cited from earlier work
[7] = dose expansion Cohort 1, BRAF+ Naïve, Q2D n = 16
[8] = dose expansion Cohort 2, BRAF+ Previously treated, Q2D n = 6
[9] = dose expansion Cohort 3, NRAS+ Naïve, Q2D n = 14
[10] = dose expansion Cohort 4, NRAS + Previously treated, Q2D n = 1
[11] = dose expansion Cohort 5, BRAF/NRAS WT Naïve, Q2D n = 6
[12] = dose expansion Cohort 6, BRAF/NRAS WT Previously, Q2D n = 9
[13] = dose expansion Cohort 9, NRAS+ Naïve, QW n = 17
[14] = dose expansion, Q2D n=68 (melanoma cohorts, PK cohort, unknown)

C[C@@H](NC(=O)c1ncnc(N)c1Cl)c1ncc(C(=O)Nc2cc(C(F)(F)F)c(Cl)cn2)s1 [tovorafenib]
median PFS ([1]; BRAF mutation-positive, RAF and MEK inhibitor-naïve cohort, 95% CI 1.9–14.3): 5.7 months
sustained PFS in an individual patient ([1]; BRAF mutation-positive, RAF and MEK inhibitor-naïve cohort, in response and on treatment at data cutoff): 45 months
duration of stable disease in one patient ([1]; NRAS-mutated melanoma, cohort 7): 42 months
best response of stable disease ([1]; Q2D dose escalation, 5 of 22 evaluable patients): 23%
responses ([1]; Q2D dose escalation, 22 evaluable patients): no responses
Objective response rate ([1]; Q2D expansion phase, 10 of 68 evaluable patients, 95% CI 7–25): 15%
median duration of response ([1]; Q2D expansion, 68 evaluable patients): 6.0 months
median progression-free survival (PFS) ([1]; Q2D expansion, 68 evaluable patients, 95% CI 1.8–3.6): 1.9 months
partial responses ([1]; QW dose escalation, 2 in 14 evaluable patients (endometrial cancer 600 mg, thyroid cancer 800 mg)): 14%
best response of stable disease ([1]; QW dose expansion, 9 of 17 evaluable patients): 53%
responses ([1]; QW dose expansion, 17 evaluable patients, NRAS mutation-positive melanoma naïve to RAF and MEK inhibitors): no responses
responses (partial) ([1]; cohort 1, BRAF mutation-positive melanoma, RAF and MEK inhibitor-naïve, Q2D, 8 of 16): 50%
responses ([1]; cohort 2, BRAF mutation-positive, RAF and MEK inhibitor-previously treated, Q2D, 1 of 6): 17%
responses ([1]; cohort 3, NRAS mutation-positive, RAF and MEK inhibitor-naïve, Q2D, 1 of 14): 7%
Best overall response: Complete response ([1]; dose escalation, Q2D n = 22): 0 n (%)
Best overall response: Partial response ([1]; dose escalation, Q2D n = 22): 0 n (%)
Best overall response: Progressive disease ([1]; dose escalation, Q2D n = 22): 17 (77) n (%)
Best overall response: Stable disease ([1]; dose escalation, Q2D n = 22): 5 (23) n (%)
Objective response rate ([1]; dose escalation, Q2D n = 22): 0 n (%)
Best overall response: Complete response ([1]; dose escalation, QW n = 14): 0 n (%)
Best overall response: Partial response ([1]; dose escalation, QW n = 14): 2 (14) n (%)
Best overall response: Progressive disease ([1]; dose escalation, QW n = 14): 8 (57) n (%)
Best overall response: Stable disease ([1]; dose escalation, QW n = 14): 4 (29) n (%)
Objective response rate ([1]; dose escalation, QW n = 14): 2 (14) n (%)
Best overall response: Complete response ([1]; dose escalation, Total n=36): 0 n (%)
Best overall response: Partial response ([1]; dose escalation, Total n=36): 2 (6) n (%)
Best overall response: Progressive disease ([1]; dose escalation, Total n=36): 25 (69) n (%)
Best overall response: Stable disease ([1]; dose escalation, Total n=36): 9 (25) n (%)
Objective response rate ([1]; dose escalation, Total n=36): 2 (6) n (%)
Best overall response: Complete response [1, 7]: 0 n (%)
Best overall response: Partial response [1, 7]: 8 (50) n (%)
Best overall response: Progressive disease [1, 7]: 6 (38) n (%)
Best overall response: Stable disease [1, 7]: 2 (13) n (%)
Objective response rate [1, 7]: 8 (50) n (%)
Best overall response: Complete response [1, 8]: 0 n (%)
Best overall response: Partial response [1, 8]: 1 (17) n (%)
Best overall response: Progressive disease [1, 8]: 2 (33) n (%)
Best overall response: Stable disease [1, 8]: 3 (50) n (%)
Objective response rate [1, 8]: 1 (17) n (%)
Best overall response: Complete response [1, 9]: 0 n (%)
Best overall response: Partial response [1, 9]: 1 (7) n (%)
Best overall response: Progressive disease [1, 9]: 9 (64) n (%)
Best overall response: Stable disease [1, 9]: 4 (29) n (%)
Objective response rate [1, 9]: 1 (7) n (%)
Best overall response: Complete response [1, 10]: 0 n (%)
Best overall response: Partial response [1, 10]: 0 n (%)
Best overall response: Progressive disease [1, 10]: 1 (100) n (%)
Best overall response: Stable disease [1, 10]: 0 n (%)
Objective response rate [1, 10]: 0 n (%)
Best overall response: Complete response [1, 11]: 0 n (%)
Best overall response: Partial response [1, 11]: 0 n (%)
Best overall response: Progressive disease [1, 11]: 5 (83) n (%)
Best overall response: Stable disease [1, 11]: 1 (17) n (%)
Objective response rate [1, 11]: 0 n (%)
Best overall response: Complete response [1, 12]: 0 n (%)
Best overall response: Partial response [1, 12]: 0 n (%)
Best overall response: Progressive disease [1, 12]: 6 (67) n (%)
Best overall response: Stable disease [1, 12]: 3 (33) n (%)
Objective response rate [1, 12]: 0 n (%)
Best overall response: Complete response [1, 13]: 0 n (%)
Best overall response: Partial response [1, 13]: 0 n (%)
Best overall response: Progressive disease [1, 13]: 8 (47) n (%)
Best overall response: Stable disease [1, 13]: 9 (53) n (%)
Objective response rate [1, 13]: 0 n (%)
Best overall response: Complete response [1, 14]: 0 n (%)
Best overall response: Partial response [1, 14]: 10 (15) n (%)
Best overall response: Progressive disease [1, 14]: 37 (54) n (%)
Best overall response: Stable disease [1, 14]: 21 (31) n (%)
Objective response rate [1, 14]: 10 (15) n (%)
Best overall response: Complete response ([1]; dose expansion, QW n=17): 0 n (%)
Best overall response: Partial response ([1]; dose expansion, QW n=17): 0 n (%)
Best overall response: Progressive disease ([1]; dose expansion, QW n=17): 8 (47) n (%)
Best overall response: Stable disease ([1]; dose expansion, QW n=17): 9 (53) n (%)
Objective response rate ([1]; dose expansion, QW n=17): 0 n (%)
Best overall response: Complete response ([1]; dose expansion, Total n=85): 0 n (%)
Best overall response: Partial response ([1]; dose expansion, Total n=85): 10 (12) n (%)
Best overall response: Progressive disease ([1]; dose expansion, Total n=85): 45 (53) n (%)
Best overall response: Stable disease ([1]; dose expansion, Total n=85): 30 (35) n (%)
Objective response rate ([1]; dose expansion, Total n=85): 10 (12) n (%)
Fatal serious adverse event, MedDRA preferred term ([2]; dose escalation, 20 mg Q2D, study day of death 23, Not related): Respiratory failure
Fatal serious adverse event, MedDRA preferred term ([2]; dose escalation, 80 mg Q2D, study day of death 44, Not related): Colon cancer
Fatal serious adverse event, MedDRA preferred term ([2]; dose escalation, 280 mg Q2D, study day of death 28, Related): Respiratory failure
Fatal serious adverse event, MedDRA preferred term ([2]; dose escalation, 600 mg QW, study day of death 9, Not related): Colon cancer metastatic
Fatal serious adverse event, MedDRA preferred term ([2]; dose escalation, 600 mg QW, study day of death 28, Not related): Pancreatic carcinoma
Fatal serious adverse event, MedDRA preferred term ([2]; dose escalation, 800 mg QW, study day of death 31, Not related): Cardio-respiratory arrest
on-study deaths ([2]; dose expansion phase (7%)): 7 patients
Fatal serious adverse event, MedDRA preferred term ([2]; dose expansion, Q2D, study day of death 16, Not related): Small intestinal obstruction
Fatal serious adverse event, MedDRA preferred term ([2]; dose expansion, Q2D, study day of death 26, Not related): Sepsis
Fatal serious adverse event, MedDRA preferred term ([2]; dose expansion, Q2D, study day of death 43, Not related): Pneumonia
Fatal serious adverse event, MedDRA preferred term ([2]; dose expansion, Q2D, study day of death 61, Not related): Metastatic malignant melanoma
Fatal serious adverse event, MedDRA preferred term ([2]; dose expansion, Q2D, study day of death 67, Not related): Malignant melanoma
Fatal serious adverse event, MedDRA preferred term ([2]; dose expansion, Q2D, study day of death 81, Not related): Metastatic malignant melanoma
drug-related TEAE fatigue ([2]; human, in vivo): 42%
drug-related TEAE maculo-papular rash ([2]; human, in vivo): 36%
drug-related grade 3 or higher anemia ([2]; human, in vivo): 8%
drug-related grade 3 or higher hyperbilirubinemia ([2]; human, in vivo): 10%
drug-related grade 3 or higher maculo-papular rash ([2]; human, in vivo): 9%
generalized rash leading to dose reduction ([2]; human, in vivo): 3%
grade 3 or higher anemia ([2]; human, in vivo): 14%
grade 3 or higher maculo-papular rash ([2]; human, in vivo): 8%
maculo-papular rash leading to dose reduction ([2]; human, in vivo): 5%
maculo-papular rash resulting in permanent discontinuation ([2]; human, in vivo): 3%
sepsis resulting in permanent discontinuation ([2]; human, in vivo): 3%
squamous cell carcinoma of skin reported as TEAE ([2]; human, in vivo): < 1%
on-study deaths deemed treatment related ([2]; respiratory failure, 280 mg Q2D dose escalation cohort): one
on-study deaths ([2]; whole study, 149 patients): 13
IC50 [3]: 0.0101 µM
p-ERK suppression [4]: strong and sustained p-ERK suppression
affinity for monomeric versus dimeric forms of BRAF [5]: equal affinity
paradoxical activation of ERK signaling [6]: not to trigger paradoxical activation of ERK signaling
